Assay results as given in PubChem BioAssay (NCI).
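Briefly, cells in 96-well plates were exposed to five compound concentrations for 48 h, and endpoints were estimated by linear interpolation. GI50 marks 50% less growth. At the TGI there is no net growth.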

Experiments:
Test in all cases: NCI anticancer screen, dose series, 48 h
786-0 renal = system: 786-0 renal
A498 renal = system: A498 renal
A549 NSCLC = system: A549 NSCLC
ACHN renal = system: ACHN renal
BT-549 breast = system: BT-549 breast
CAKI-1 renal = system: CAKI-1 renal
CCRF-CEM leukemia = system: CCRF-CEM leukemia
COLO 205 colon = system: COLO 205 colon
DU-145 prostate = system: DU-145 prostate
EKVX NSCLC = system: EKVX NSCLC
HCC-2998 colon = system: HCC-2998 colon
HCT-116 colon = system: HCT-116 colon
HL-60(TB) leukemia = system: HL-60(TB) leukemia
HOP-62 NSCLC = system: HOP-62 NSCLC
HOP-92 NSCLC = system: HOP-92 NSCLC
HS 578T breast = system: HS 578T breast
HT29 colon = system: HT29 colon
IGROV1 ovarian = system: IGROV1 ovarian
K-562 leukemia = system: K-562 leukemia
KM12 colon = system: KM12 colon
LOX IMVI melanoma = system: LOX IMVI melanoma
M14 melanoma = system: M14 melanoma
MALME-3M melanoma = system: MALME-3M melanoma
MCF7 breast = system: MCF7 breast
MDA-MB-231 breast = system: MDA-MB-231 breast
MDA-MB-435 = system: MDA-MB-435
MOLT-4 leukemia = system: MOLT-4 leukemia
NCI-H226 lung = system: NCI-H226 lung
NCI-H23 lung = system: NCI-H23 lung
NCI-H460 lung = system: NCI-H460 lung
NCI-H522 lung = system: NCI-H522 lung
NCI/ADR-RES ovarian = system: NCI/ADR-RES ovarian
OVCAR-3 ovarian = system: OVCAR-3 ovarian
OVCAR-4 ovarian = system: OVCAR-4 ovarian
OVCAR-5 ovarian = system: OVCAR-5 ovarian
OVCAR-8 ovarian = system: OVCAR-8 ovarian
PC-3 prostate = system: PC-3 prostate
RXF 393 renal = system: RXF 393 renal
SF-268 CNS = system: SF-268 CNS
SF-295 CNS = system: SF-295 CNS
SF-539 CNS = system: SF-539 CNS
SK-MEL-2 melanoma = system: SK-MEL-2 melanoma
SK-MEL-28 melanoma = system: SK-MEL-28 melanoma
SK-MEL-5 melanoma = system: SK-MEL-5 melanoma
SK-OV-3 ovarian = system: SK-OV-3 ovarian
SN12C renal = system: SN12C renal
SNB-19 CNS = system: SNB-19 CNS
SNB-75 CNS = system: SNB-75 CNS
SR leukemia = system: SR leukemia
SW-620 colon = system: SW-620 colon
T-47D breast = system: T-47D breast
TK-10 renal = system: TK-10 renal
U251 CNS = system: U251 CNS
UACC-257 melanoma = system: UACC-257 melanoma
UACC-62 melanoma = system: UACC-62 melanoma
UO-31 renal = system: UO-31 renal
RPMI-8226 leukemia = system: RPMI-8226 leukemia

CCN(CC)CCOc1nc2c3ccc(Cl)cc3nn2c2ccccc12
GI50 (786-0 renal): 1.69 µM
TGI (786-0 renal): 3.67 µM
GI50 (A498 renal): 1.62 µM
TGI (A498 renal): 3.05 µM
GI50 (A549 NSCLC): 1.87 µM
TGI (A549 NSCLC): 4.63 µM
GI50 (ACHN renal): 1.32 µM
TGI (ACHN renal): 3.36 µM
GI50 (BT-549 breast): 3.54 µM
TGI (BT-549 breast): 17.5 µM
GI50 (CAKI-1 renal): 1.45 µM
TGI (CAKI-1 renal): 2.97 µM
GI50 (CCRF-CEM leukemia): 2.25 µM
TGI (CCRF-CEM leukemia): 12.8 µM
GI50 (COLO 205 colon): 1.55 µM
TGI (COLO 205 colon): 4.55 µM
GI50 (DU-145 prostate): 2.4 µM
TGI (DU-145 prostate): 6.07 µM
GI50 (EKVX NSCLC): 2.62 µM
TGI (EKVX NSCLC): 9.71 µM
GI50 (HCC-2998 colon): 1.62 µM
TGI (HCC-2998 colon): 3.43 µM
GI50 (HCT-116 colon): 1.4 µM
TGI (HCT-116 colon): 3.53 µM
GI50 (HL-60(TB) leukemia): 2.06 µM
TGI (HL-60(TB) leukemia): 5.64 µM
GI50 (HOP-62 NSCLC): 2.38 µM
TGI (HOP-62 NSCLC): 12.5 µM
GI50 (HOP-92 NSCLC): 1.4 µM
TGI (HOP-92 NSCLC): 6.41 µM
GI50 (HS 578T breast): 2.59 µM
TGI (HS 578T breast): 11.3 µM
GI50 (HT29 colon): 2.04 µM
TGI (HT29 colon): 9.9 µM
GI50 (IGROV1 ovarian): 1.54 µM
TGI (IGROV1 ovarian): 4.62 µM
GI50 (K-562 leukemia): 2.73 µM
TGI (K-562 leukemia): > 100 µM
GI50 (KM12 colon): 1.96 µM
TGI (KM12 colon): 4.69 µM
GI50 (LOX IMVI melanoma): 1.44 µM
TGI (LOX IMVI melanoma): 3.05 µM
GI50 (M14 melanoma): 1.76 µM
TGI (M14 melanoma): 3.95 µM
GI50 (MALME-3M melanoma): 1.6 µM
TGI (MALME-3M melanoma): 3.22 µM
GI50 (MCF7 breast): 1.96 µM
TGI (MCF7 breast): 6.08 µM
GI50 (MDA-MB-231 breast): 2.02 µM
TGI (MDA-MB-231 breast): 7.03 µM
GI50 (MDA-MB-435): 1.15 µM
TGI (MDA-MB-435): 2.79 µM
GI50 (MOLT-4 leukemia): 2.77 µM
TGI (MOLT-4 leukemia): > 100 µM
GI50 (NCI-H226 lung): 2.06 µM
TGI (NCI-H226 lung): 10.2 µM
GI50 (NCI-H23 lung): 1.81 µM
TGI (NCI-H23 lung): 4.9 µM
GI50 (NCI-H460 lung): 2.61 µM
TGI (NCI-H460 lung): 7.5 µM
GI50 (NCI-H522 lung): 2.37 µM
TGI (NCI-H522 lung): 6.43 µM
GI50 (NCI/ADR-RES ovarian): 1.89 µM
TGI (NCI/ADR-RES ovarian): 8.24 µM
GI50 (OVCAR-3 ovarian): 2.86 µM
TGI (OVCAR-3 ovarian): 9.42 µM
GI50 (OVCAR-4 ovarian): 2.78 µM
TGI (OVCAR-4 ovarian): 9.06 µM
GI50 (OVCAR-5 ovarian): 2.67 µM
TGI (OVCAR-5 ovarian): 10.3 µM
GI50 (OVCAR-8 ovarian): 2.64 µM
TGI (OVCAR-8 ovarian): 55.9 µM
GI50 (PC-3 prostate): 2.29 µM
TGI (PC-3 prostate): 9.94 µM
GI50 (RXF 393 renal): 1.75 µM
TGI (RXF 393 renal): 3.94 µM
GI50 (SF-268 CNS): 2.89 µM
TGI (SF-268 CNS): 11 µM
GI50 (SF-295 CNS): 1.79 µM
TGI (SF-295 CNS): 4.18 µM
GI50 (SF-539 CNS): 1.71 µM
TGI (SF-539 CNS): 3.84 µM
GI50 (SK-MEL-2 melanoma): 2.16 µM
TGI (SK-MEL-2 melanoma): 4.94 µM
GI50 (SK-MEL-28 melanoma): 1.89 µM
TGI (SK-MEL-28 melanoma): 3.57 µM
GI50 (SK-MEL-5 melanoma): 1.73 µM
TGI (SK-MEL-5 melanoma): 3.12 µM
GI50 (SK-OV-3 ovarian): 2.49 µM
TGI (SK-OV-3 ovarian): 21.4 µM
GI50 (SN12C renal): 2.21 µM
TGI (SN12C renal): 10.1 µM
GI50 (SNB-19 CNS): 3.28 µM
TGI (SNB-19 CNS): 36.1 µM
GI50 (SNB-75 CNS): 1.58 µM
TGI (SNB-75 CNS): 8.35 µM
GI50 (SR leukemia): 2.12 µM
TGI (SR leukemia): 15.8 µM
GI50 (SW-620 colon): 1.42 µM
TGI (SW-620 colon): 4.13 µM
GI50 (T-47D breast): 3.51 µM
TGI (T-47D breast): 18.8 µM
GI50 (TK-10 renal): 3.88 µM
TGI (TK-10 renal): 16.1 µM
GI50 (U251 CNS): 2.11 µM
TGI (U251 CNS): 5.4 µM
GI50 (UACC-257 melanoma): 1.89 µM
TGI (UACC-257 melanoma): 4.02 µM
GI50 (UACC-62 melanoma): 1.79 µM
TGI (UACC-62 melanoma): 3.7 µM
GI50 (UO-31 renal): 1.07 µM
TGI (UO-31 renal): 2.66 µM

O=CC1C(Cl)=Nc2nc3ccccc3n2C1c1ccc([N+](=O)[O-])cc1 (stereo not given)
TGI (786-0 renal): > 100 µM
TGI (A498 renal): 47.4 µM
TGI (A549 NSCLC): > 100 µM
TGI (BT-549 breast): 2.58 µM
TGI (CAKI-1 renal): 7.65 µM
TGI (CCRF-CEM leukemia): > 100 µM
TGI (COLO 205 colon): > 100 µM
TGI (DU-145 prostate): 32.4 µM
TGI (EKVX NSCLC): 53.5 µM
TGI (HCC-2998 colon): 49.4 µM
TGI (HCT-116 colon): > 100 µM
TGI (HL-60(TB) leukemia): 20.2 µM
TGI (HOP-62 NSCLC): > 100 µM
TGI (HOP-92 NSCLC): 20.7 µM
TGI (HS 578T breast): > 100 µM
TGI (IGROV1 ovarian): 26 µM
TGI (K-562 leukemia): 78.5 µM
TGI (KM12 colon): 82.9 µM
TGI (M14 melanoma): > 100 µM
TGI (MALME-3M melanoma): 31.6 µM
TGI (MCF7 breast): 67.9 µM
TGI (MDA-MB-231 breast): 45.4 µM
TGI (MDA-MB-435): 27.8 µM
TGI (MOLT-4 leukemia): 6.29 µM
TGI (NCI-H226 lung): 9.27 µM
TGI (NCI-H23 lung): 57.1 µM
TGI (NCI-H460 lung): 94 µM
TGI (NCI-H522 lung): 12.8 µM
TGI (NCI/ADR-RES ovarian): > 100 µM
TGI (OVCAR-3 ovarian): > 100 µM
TGI (OVCAR-4 ovarian): 30.9 µM
TGI (OVCAR-5 ovarian): > 100 µM
TGI (OVCAR-8 ovarian): 27.7 µM
TGI (PC-3 prostate): > 100 µM
TGI (RPMI-8226 leukemia): > 100 µM
TGI (RXF 393 renal): 7.15 µM
TGI (SF-268 CNS): 62.2 µM
TGI (SF-295 CNS): 50.7 µM
TGI (SF-539 CNS): > 100 µM
TGI (SK-MEL-2 melanoma): 21.4 µM
TGI (SK-MEL-28 melanoma): 5.09 µM
TGI (SK-MEL-5 melanoma): 37.9 µM
TGI (SN12C renal): 51.4 µM
TGI (SNB-19 CNS): 36.3 µM
TGI (SNB-75 CNS): 5.28 µM
TGI (SR leukemia): 5.97 µM
TGI (SW-620 colon): > 100 µM
TGI (T-47D breast): 4.19 µM
TGI (TK-10 renal): 16.1 µM
TGI (U251 CNS): 44.5 µM
TGI (UACC-257 melanoma): 31.5 µM
TGI (UACC-62 melanoma): 35.6 µM
TGI (UO-31 renal): 14.8 µM
